{
  "source": "BindingDB's records for doi:10.1074/jbc.M113.510743",
  "about": "(Max Planck Institute of Biophysics, 2014)",
  "target": "T1, APC family lysine-specific permease (Salmonella typhimurium (strain LT2 / SGSC1412 / ATCC 700720), UniProt Q8ZNK9)",
  "T1 sequence (Q8ZNK9 whole entry)": "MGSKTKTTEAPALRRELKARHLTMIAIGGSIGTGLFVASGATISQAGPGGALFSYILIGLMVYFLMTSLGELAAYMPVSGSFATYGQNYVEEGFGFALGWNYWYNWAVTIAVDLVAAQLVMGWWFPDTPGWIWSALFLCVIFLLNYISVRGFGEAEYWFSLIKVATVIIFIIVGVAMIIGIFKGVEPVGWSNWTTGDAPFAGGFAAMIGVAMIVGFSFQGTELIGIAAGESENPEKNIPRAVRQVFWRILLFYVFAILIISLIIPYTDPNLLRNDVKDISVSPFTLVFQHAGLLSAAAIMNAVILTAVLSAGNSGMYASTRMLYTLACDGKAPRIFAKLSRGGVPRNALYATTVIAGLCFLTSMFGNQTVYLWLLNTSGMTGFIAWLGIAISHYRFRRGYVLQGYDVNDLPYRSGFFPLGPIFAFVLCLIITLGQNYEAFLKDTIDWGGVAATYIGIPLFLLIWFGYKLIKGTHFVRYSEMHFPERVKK",
  "experiment": "Isothermal Titration Calorimetry (ITC)",
  "settings": "pH 5.9; 20 °C",
  "experimental": "ITC measurements were carried out at 20 °C with a VP-ITC calorimeter (GE Healthcare, MicroCal, Inc.) consisting of a 1.45-ml reaction cell. STM2200 in 20 mM MES-NaOH, 150 mM NaCl, 0.025% (w/v) β-DDM, pH 5.9 at concentrations ranging between 15 and 30 μM was titrated with ligands under conditions where the sum of the ionic strengths of ligand and NaCl was always 150 mM. After an initial 4-μl injection, all subsequent ligand additions consisted of 5 μl every 240-300 s. Stirring was at 307 rpm.",
  "data": [
    {"smiles": "NCCCC[C@@H](N)C(=O)O", "note": "[(2R)-2,6-diaminohexanoic acid]", "values": [
      {"measurement": "Kd", "value": 1800, "unit": "µM"}
    ]},
    {"smiles": "NCCCC[C@H](N)C(=O)O", "note": "[(2S)-2,6-diaminohexanoic acid]", "values": [
      {"measurement": "Kd", "value": 40, "unit": "µM"}
    ]}
  ]
}
